Results as given in patent US7723070B2, “Overexpression of aminoacyl-tRNA synthetases for efficient production of engineered proteins containing amino acid analogues” (California Institute of Technology, priority 2000, dated 2010).
Entries after “also recorded” stand apart in the source; their conditions may differ.

Biological target: T1, methionyl tRNA synthetase (MetRS) (Escherichia coli, UniProt P00959)
T1 sequence (P00959 1-548 limits assumed): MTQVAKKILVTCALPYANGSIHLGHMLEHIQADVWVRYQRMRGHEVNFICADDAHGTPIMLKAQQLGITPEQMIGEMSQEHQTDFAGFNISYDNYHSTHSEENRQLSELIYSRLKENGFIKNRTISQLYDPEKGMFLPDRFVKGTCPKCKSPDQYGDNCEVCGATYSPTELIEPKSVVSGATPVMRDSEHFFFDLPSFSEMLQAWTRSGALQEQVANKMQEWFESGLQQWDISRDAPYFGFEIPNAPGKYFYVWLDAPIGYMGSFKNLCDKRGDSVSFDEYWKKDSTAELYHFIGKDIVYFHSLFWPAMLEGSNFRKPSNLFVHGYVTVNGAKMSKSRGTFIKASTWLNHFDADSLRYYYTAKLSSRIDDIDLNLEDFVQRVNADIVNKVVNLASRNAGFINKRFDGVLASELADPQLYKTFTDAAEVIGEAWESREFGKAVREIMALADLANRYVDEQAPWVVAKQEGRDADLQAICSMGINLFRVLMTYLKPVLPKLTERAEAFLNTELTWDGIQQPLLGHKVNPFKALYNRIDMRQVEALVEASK
Experiment: ATP-PPi exchange assay: activation of methionine and methionine analogues by MetRS
Type: biochemical, E. coli
Parameters: The fully active, truncated form of methionyl tRNA synthetase (MetRS) was purified from overnight cultures of JM101 cells carrying the plasmid pGG3; made in house; host or cells: E. coli JM101 carrying plasmid pGG3
Conditions: for fold lower kcat/Km (less efficiently activated) than methionine: relative to methionine
Source text: The fully active, truncated form of methionyl tRNA synthetase (MetRS) was purified from overnight cultures of JM101 cells carrying the plasmid pGG3. (The plasmid, which encodes the tryptic fragment of MetRS, Ghosh, G.; Brunie, S.; Schulman, L. H. J. Biol. Chem. 1991, 266, 17136-17141). The enzyme was purified by size exclusion chromotography as previously described (Mellot, P.; Mechulam, Y.; LeCorre, D.; Blanquet, S.; Fayat, G. J. Mol. Biol. 1989, 208, 429). Activation of methionine analogues by MetRS was assayed via the amino-acid-dependent ATP-PPi exchange reaction, also as previously described (Mellot, P.; Mechulam, Y.; LeCorre, D.; Blanquet, S.; Fayat, G. J. Mol. Biol. 1989, 208, 429; Blanquet, S.; Fayat, G.; Waller, J.-P. Eur. J. Biochem. 1974, 44, 343; Ghosh, G.; Pelka, H.; Schulman, L. H. Biochemistry 1990, 29, 2220). The assay, which measures the ^32P-radiolabeled ATP formed by the enzyme-catalyzed exchange of ^32P-pyrophosphate (PPi) into ATP, was conducted in 150 μl of reaction buffer (pH 7.6, 20 mM imidazole; 0.1 mM EDTA, 10 mM β-mercaptoethanol, 7 mM MgCl2, 2 mM ATP, 0.1 mg/ml BSA, and 2 mM PPi (in the form of sodium pyrophosphate with a specific activity of approximately 0.18 TBq/mole)). […] Kinetic parameters for analogue 5 were obtained with an enzyme concentration of 75 nM and analogue concentrations of 100 μM to 10 mM. Parameters for methionine were obtained by using concentrations ranging from 10 μM to 1 mM. […] Aliquots of 20 μl were removed from the reaction mixture at various time points and were quenched in 0.5 ml of a solution comprising 200 mM PPi, 7% w/v HClO4, and 3% w/v activated charcoal. The charcoal was rinsed twice with 0.5 mL of a 10 mM PPi, 0.5% HClO4 solution and was then resuspended in 0.5 mL of this solution and counted via liquid scintillation methods. Kinetic constants were calculated by nonlinear regression analysis.
The fully active, truncated form of MetRS was purified from overnight cultures of JM101 cells carrying the plasmid pGG3. The enzyme was purified by size exclusion chromotography as previously described (P. Mellot, Y. Mechulam, D. LeCorre, S. Blanquet, G. Fayat, J. Mol. Biol. 1989, 208, 429-443). Activation of methionine analogues by MetRS was assayed at 25° C. via the amino acid-dependent ATP-PPi exchange reaction, also as described in Example I (G. Ghosh, H. Pelka, L. H. Schulman, Biochemistry 1990, 29, 2220-2225). […] Kinetic parameters for analogue 5 were obtained with an enzyme concentration of 50 nM and analogue concentrations of 100 μM to 10 mM. Kinetic parameters for analogue 11 were determined using an enzyme concentration of 50 nM and analogue concentrations ranging from 750 μM to 20 mM. Kinetic parameters for analogues 4, 7, 8, and 12 were obtained with an enzyme concentration of 50 or 75 nM and analogue concentrations ranging from 5 to 70 mM. Parameters for methionine were obtained by using concentrations ranging from 10 μM to 1 mM. […] Kinetic constants were calculated by nonlinear regression analysis.
The fully active, truncated form of MetRS was purified from overnight cultures of E. coli JM101 cells carrying the plasmid pGG3 (Kim, H. Y.; Ghosh, G.; Schulman, L. H.; Brunie, S.; Jakubowski, H. Proc. Natl. Acad. Sci. USA 1993, 90, 11553-11557), by using size exclusion methods previously reported (Mellot, P.; Mechulam, Y.; LeCorre, D.; Blanquet, S.; Fayat, G. J. Mol. Biol. 1989, 208, 429-443). Purified enzyme solutions (in 10 mM phosphate, pH 6.7, 10 mM (β-mercaptoethanol) were concentrated to at least 3 μM prior to their storage in 40% glycerol at −20° C. Concentrations of enzyme stocks were determined by the Bradford method, using samples of MetRS quantified by amino acid analysis as standards.

[1] = 75 nM enzyme, 5 mM L-isomer, 20 minutes
[2] = ATP-PPi exchange, purified truncated MetRS

Row | Compound | rate/level of PPi exchange (activation by MetRS), in words [1] | fold lower kcat/Km (less efficiently activated) than methionine [fold] | other results
1 | C=CCCC(N)C(=O)O (racemic) [Analogue 2, DL-2-amino-5-hexenoic acid] | rates similar to that of norleucine (9); also recorded: several-fold lower than methionine | 1850 | 
2 | CCC[C@H](N)C(=O)O [Analogue 8, L-norvaline] | very slow exchange of PPi |  | 
3 | CCCCCC(N)C(=O)O (racemic) [Analogue 7, DL-2-aminoheptanoic acid] | very slow exchange of PPi |  | 
4 | C/C=C\CC(N)C(=O)O (racemic) [Analogue 4, cis-2-amino-4-hexenoic acid] | does not cause measurable exchange of PPi; also recorded: very slow exchange of PPi |  | 
5 | CCCC[C@H](N)C(=O)O [Analogue 9, L-norleucine] |  | 1050 | 
6 | C/C=C/CC(N)C(=O)O (racemic) [Analogue 5, trans-2-amino-4-hexenoic acid] | very slow exchange of PPi; also recorded: neither recognized efficiently; also recorded: slow exchange of PPi | 4700 | 
7 | 2-butynylglycine [Analogue 11] | very slow exchange of PPi; also recorded: slow exchange of PPi | 13825 | Km [2]: 38.6 mM; kcat [2]: 1.51 ± 0.5 s⁻¹
8 | C=CCC(N)C(=O)O (stereo not shown) [Analogue 12, allylglycine] | very slow exchange of PPi |  | 
9 | C#CCCC(N)C(=O)O (racemic) [Analogue 3, DL-homopropargylglycine] | rates similar to that of norleucine (9); also recorded: several-fold lower than methionine | 500 | 
10 | CSCC[C@H](N)C(=O)O [Analogue 1, L-methionine, reference compound] |  |  | amount of PPi exchanged at a reaction time of 20 minutes [1]: 9 mmol
